Measurements: publication PMC5503023 (2016)

Key:
[1] = test system: bcl-2 G-quadruplex DNA (DNA, G4) CGGGCGCGGGAGGAAGGGGGCGGGAGC; experiment: CD melting at 280 nm; conditions: 100 mM KCl; 10 mM Tris-HCl, pH 7.4; 10 μM complex, 100 μM DNA
[2] = test system: bcl-2 G-quadruplex DNA (DNA, G4) CGGGCGCGGGAGGAAGGGGGCGGGAGC; experiment: UV-vis absorption titration; conditions: 100 mM KCl; 10 mM Tris-HCl, pH 7.4; 20 μM complex; intrinsic binding constant

## Clc1ccc(-c2nc3c4cccnc4c4ncccc4c3[nH]2)cc1.[Cl-].[Ru+2].c1ccccc1
[1]
  ΔTm: 4.2 °C
[2]
  K: ~ 2.94 × 10^6 M^-1
